This note sets out measurements from US20240245682A1, “ALPHA-V-BETA-8 INTEGRIN INHIBITORS AND USES THEREOF” (Pliant Therapeutics, Inc., priority 2022, published 2024).

“And” between values parts separate entries of the source, which are not always exact repeats. Identical values can stand only once. “Also recorded” adds a separate entry of the source.

Test [1] deals with EMT6 tumors. Nature of the test: EMT6 (breast) syngeneic tumor model (Example B6). The format is in vivo, Balb/c mice. As for the experimental part: The therapeutic impact of Compound 39 of the examples in combination with anti PD-1 was studied for several […] mouse models, as shown in Table B-3. For each model, four dosing regimens were studied, using a group size of 10 mice per dosing regimen per model, and a total of 40 mice per model.
Mice were shaved and tumor cells as indicated in Table B-3 were subcutaneously implanted in a 100 μl cell suspension that was subcutaneously injected into the front/rear flank of each mouse (as indicated in Table B-3).
There was no dosing holiday. Dietary supplements were uniform for all animals in the same group.
Animals were monitored weekly for changes in tumor volume. Tumors were measured at least once a week using calipers. Tumor volume was calculated using the equation: (longest diameter*shortest diameter^2)/2.
The study was terminated four weeks after the first dose or when the tumor sizes reached greater than 3000 mm^3, whichever was first. Mice were euthanized and tumors were collected.
Tumor tissues (50 to 80 mg) were homogenized using metal beads in pre-chilled RINO screw cap tubes, using lysis matrix (MP Lysing Matrix S [⅛″], 2 mL Tube MP Biomedical Cat #116925100) on MP Fast Prep 24 instrument. Tumor RNA extraction from the tumor homogenate used the Ambion Purelink, RNA kit (Cat #12183018A) according to the manufacturers' protocol. A total of 100 ng RNA was used for the Nanostring analysis of the immuno-oncology and fibrosis panel, and 300 ng RNA was used for the analysis of the integrin panel. RNA was hybridized to gene expression Plexset according to the manufacturers' protocol. Hybridized reactions were read on nCounter MAX (Nanostring), and data were analyzed using nCounter software.
Table B-5 lists the catalog numbers of the antibodies used in the immunohistochemical (IHC) studies. Quantification of staining was done using the HALO software package (Indica Labs, Albaquerque, NM).

In test [2] the target is human integrin αVβ6 (Homo sapiens, UniProt P06756+P18564). Nature of the test: AlphaScreen proximity-based integrin binding assay with TGF-b1 LAP. To be noted: values given as ranges. Summed up: (§1)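 Purified human integrin incubated with compound, TGF-b1 LAP, biotinylated anti-LAP antibody and acceptor beads for 2 h, then streptavidin donor beads 30 min, room temperature, in 50 mM Tris-HCl pH 7.5, 0.1% BSA, 1 mM CaCl2/MgCl2. AlphaScreen signal (680 nm excitation, 520-620 nm emission); IC50 by four-parameter fit.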
(In general: Alpha assays give light when donor and acceptor beads are brought close together.)

The target in test [3] is human integrin αVβ1 (Homo sapiens, UniProt P05556+P06756). Described as above. To be noted: values given as ranges. Summed up:
as §1

The target in test [4] is human integrin αVβ8 (Homo sapiens, UniProt P06756+P26012). Described as above. The following applies: values given as ranges. Summed up:
as §1

Test [5] has as its system TKCC-05 tumors. As to the kind of experiment: Orthotopic TKCC-05 (PDX-05) PDX model of PDAC (Example B12). The format is in vivo, NSG mice. The following applies: FIG. 26B. Here is the method: Table B-9 depicts the study design to determine the efficacy of selective αvβ1/αvβ8 SMI in the orthotopic ECM-high PDX models of PDAC. Table B-10 depicts the study design for the TKCC-10 PDX model.
Table B-11 depicts the study design for the TKCC-05 model.
TKCC-05 cells were inoculated in the pancreas of […] mice and were allowed to grow into tumors for 1 week. The mice were then treated according to schema outlined in […], and FIG. 26A, which depicts a schematic diagram of the treatment regimen in the TKCC-05 PDAC PDX model for this study. FIG. 26B depicts a graph associated with the quantification of tumor weights in mice treated with Compound 39, Reference compound B, and ADWA-11 Ab for the study associated with Example B12. FIG. 26C depicts a graph associated with the quantification of tumor weights in mice treated with G/A, Compound 39+G/A, Reference compound B+G/A, and ADWA-11+G/A for the study associated with Example B12. P values by one-way ANOVA.

Setting [6] is: Compound 39+α-PD1 vs vehicle+αPD1, FIG. 48, model not stated.

Chain of human integrin αVβ1 (P06756 31-992 limits assumed): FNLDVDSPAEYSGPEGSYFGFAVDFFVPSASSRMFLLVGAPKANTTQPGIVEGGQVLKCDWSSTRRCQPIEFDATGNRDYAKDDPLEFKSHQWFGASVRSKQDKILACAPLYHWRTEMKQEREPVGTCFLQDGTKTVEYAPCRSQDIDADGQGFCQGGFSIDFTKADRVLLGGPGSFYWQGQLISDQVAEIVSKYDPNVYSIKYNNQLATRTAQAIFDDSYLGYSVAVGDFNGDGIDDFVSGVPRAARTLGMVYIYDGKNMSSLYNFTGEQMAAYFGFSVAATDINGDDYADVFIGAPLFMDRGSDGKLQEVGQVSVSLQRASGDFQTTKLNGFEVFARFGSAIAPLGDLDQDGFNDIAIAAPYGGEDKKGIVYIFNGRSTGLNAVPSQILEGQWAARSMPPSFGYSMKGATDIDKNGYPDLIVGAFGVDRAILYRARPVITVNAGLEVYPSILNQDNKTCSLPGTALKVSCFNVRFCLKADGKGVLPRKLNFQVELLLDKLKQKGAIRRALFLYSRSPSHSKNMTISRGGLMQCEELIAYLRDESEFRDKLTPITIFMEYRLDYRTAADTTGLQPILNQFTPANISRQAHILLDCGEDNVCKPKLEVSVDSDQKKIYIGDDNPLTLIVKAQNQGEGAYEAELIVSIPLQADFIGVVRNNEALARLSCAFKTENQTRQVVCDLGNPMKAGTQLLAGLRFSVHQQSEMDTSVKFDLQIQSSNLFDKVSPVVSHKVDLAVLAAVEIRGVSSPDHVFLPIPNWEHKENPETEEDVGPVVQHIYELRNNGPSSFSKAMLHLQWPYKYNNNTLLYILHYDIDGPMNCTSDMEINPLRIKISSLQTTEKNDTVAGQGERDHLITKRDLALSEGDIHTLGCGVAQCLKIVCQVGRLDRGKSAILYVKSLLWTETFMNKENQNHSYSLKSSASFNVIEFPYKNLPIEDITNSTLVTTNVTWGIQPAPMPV
Chain of human integrin αVβ1 (P05556 21-728 limits assumed): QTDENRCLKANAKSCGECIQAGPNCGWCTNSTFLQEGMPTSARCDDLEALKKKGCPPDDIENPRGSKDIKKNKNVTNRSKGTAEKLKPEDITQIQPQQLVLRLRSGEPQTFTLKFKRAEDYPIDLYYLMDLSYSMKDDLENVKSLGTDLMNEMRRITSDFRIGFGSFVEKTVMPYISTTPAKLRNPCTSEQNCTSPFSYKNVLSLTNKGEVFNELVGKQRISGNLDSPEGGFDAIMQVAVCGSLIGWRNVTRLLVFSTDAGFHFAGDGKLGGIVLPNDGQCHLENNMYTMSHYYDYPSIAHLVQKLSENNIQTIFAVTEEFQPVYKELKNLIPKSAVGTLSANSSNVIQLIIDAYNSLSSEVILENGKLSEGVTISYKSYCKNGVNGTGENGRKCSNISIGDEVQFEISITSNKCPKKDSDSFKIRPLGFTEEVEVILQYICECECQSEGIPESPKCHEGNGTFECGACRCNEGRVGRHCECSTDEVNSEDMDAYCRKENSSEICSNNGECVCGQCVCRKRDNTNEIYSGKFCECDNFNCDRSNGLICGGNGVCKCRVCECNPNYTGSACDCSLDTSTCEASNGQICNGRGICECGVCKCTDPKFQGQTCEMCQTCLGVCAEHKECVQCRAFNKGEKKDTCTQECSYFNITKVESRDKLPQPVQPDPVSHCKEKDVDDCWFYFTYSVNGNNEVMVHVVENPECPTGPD
Chain of human integrin αVβ6 (P06756 31-992 limits assumed): as the sequence (P06756 31-992 limits assumed) above
Chain of human integrin αVβ6 (P18564 22-707 limits assumed): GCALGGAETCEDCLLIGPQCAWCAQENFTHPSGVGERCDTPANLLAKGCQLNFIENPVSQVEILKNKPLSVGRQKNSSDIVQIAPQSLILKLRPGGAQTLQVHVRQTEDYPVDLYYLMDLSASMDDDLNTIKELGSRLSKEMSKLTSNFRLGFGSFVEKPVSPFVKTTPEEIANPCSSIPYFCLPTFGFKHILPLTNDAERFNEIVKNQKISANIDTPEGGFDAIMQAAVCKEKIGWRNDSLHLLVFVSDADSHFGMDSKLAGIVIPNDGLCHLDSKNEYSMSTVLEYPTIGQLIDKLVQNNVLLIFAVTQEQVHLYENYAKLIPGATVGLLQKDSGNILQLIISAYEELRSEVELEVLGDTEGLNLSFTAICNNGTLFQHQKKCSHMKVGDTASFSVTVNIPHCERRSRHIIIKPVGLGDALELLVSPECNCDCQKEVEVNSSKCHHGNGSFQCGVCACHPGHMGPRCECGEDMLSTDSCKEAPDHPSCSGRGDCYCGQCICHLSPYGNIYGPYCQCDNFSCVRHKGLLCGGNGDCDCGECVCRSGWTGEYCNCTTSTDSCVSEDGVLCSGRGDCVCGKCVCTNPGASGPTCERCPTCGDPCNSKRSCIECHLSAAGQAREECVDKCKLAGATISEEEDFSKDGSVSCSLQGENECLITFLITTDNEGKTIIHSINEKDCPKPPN
Chain of human integrin αVβ8 (P06756 31-992 limits assumed): as the sequence (P06756 31-992 limits assumed) above
Chain of human integrin αVβ8 (P26012 43-684 limits assumed): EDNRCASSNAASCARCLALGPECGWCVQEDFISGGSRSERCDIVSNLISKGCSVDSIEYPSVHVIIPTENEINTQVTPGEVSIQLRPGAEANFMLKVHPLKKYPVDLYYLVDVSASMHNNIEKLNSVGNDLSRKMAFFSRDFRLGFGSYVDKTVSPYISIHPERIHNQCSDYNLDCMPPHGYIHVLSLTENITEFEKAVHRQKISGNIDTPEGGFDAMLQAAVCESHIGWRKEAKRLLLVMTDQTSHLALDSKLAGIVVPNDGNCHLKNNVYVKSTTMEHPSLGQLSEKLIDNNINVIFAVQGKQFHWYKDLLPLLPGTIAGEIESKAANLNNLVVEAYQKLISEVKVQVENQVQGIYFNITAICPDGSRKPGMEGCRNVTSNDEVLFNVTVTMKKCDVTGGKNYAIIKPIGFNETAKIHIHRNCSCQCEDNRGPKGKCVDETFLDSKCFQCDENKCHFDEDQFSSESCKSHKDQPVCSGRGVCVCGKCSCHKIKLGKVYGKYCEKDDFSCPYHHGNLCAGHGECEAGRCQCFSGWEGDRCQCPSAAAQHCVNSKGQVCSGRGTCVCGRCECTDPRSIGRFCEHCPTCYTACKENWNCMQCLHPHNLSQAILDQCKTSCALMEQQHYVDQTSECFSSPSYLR

On to `Cc1ncnc(Cl)c1C1(C(=O)N[C@@H](CCOCCCCc2ccc3c(n2)NCCC3)C(=O)O)CC1` [Compound 39, N-(1-(4-chloro-6-methylpyrimidin-5-yl)cyclopropane-1-carbonyl)-O-(4-(5,6,7,8-tetrahydro-1,8-naphthyridin-2-yl)butyl)-L-homoserine], for which the IFNγ gene signature entry in test [1] (setting [6]) is recorded as “increases”. For the same molecule, in test [1] (setting [6]), the TGFβ gene signatures entry was “Reduces”. In addition, the “fibrotic markers and tissue fibrosis in the tumor microenvironment” value in test [1] (Nanostring gene expression, Pico Sirius red, FIG. 107-112) was “reduces fibrotic markers; also recorded: significantly reduced fibrosis”. Further, the TGFβ activity result in test [1] (compared to vehicle, FIG. 33, model not given) is given as “reduced TGFβ activity”. Also, the “expression of IFNγ-regulated gene Granzyme B” value in test [1] (compared to vehicle, FIG. 34A) is “increased expression”. Also, in test [1] (compared to vehicle, FIG. 34B), the “expression of IFNγ-regulated gene IFNγ” value is recorded as “increased expression”. The “expression of IFNγ-regulated gene CXCL9” value in test [1] (compared to vehicle, FIG. 34C) is listed as “increased expression”. Besides, the “expression of IFNγ-regulated gene PDL1” value in test [1] (compared to vehicle, FIG. 34D) is reported as “increased expression”. For the same molecule, the values for the IC50 in test [2], in test [3] and in test [4] were not below 500 nM, less than 50 nM and less than 50 nM, respectively. In addition, the mean tumor weight in test [5] (30 days treatment) was 0.23 ± 0.08 g and 0.228 ± 0.06 g. In addition, the “tumor weight / tumor growth” value in test [5] (in words, 26C) is recorded as “significantly blocks tumor growth”.
